Numbers after ± are expanded uncertainties.
Details: 101.33 kPa, Crystal, Vacuum adiabatic calorimetry

C=C(C)C(=O)[O][Sb]([O]C(=O)C(=C)C)([c]1ccccc1)([c]1ccccc1)[c]1ccccc1 [triphenyl-.lambda.5-stibanediyl bis(2-methylacrylate)]
Details	molar entropy [J/K/mol]
5 K	0.671 ± 0.029
10 K	4.78 ± 0.07
15 K	12.1 ± 0.2
20 K	21.52 ± 0.2
25 K	32.28 ± 0.24
30 K	44.02 ± 0.2
35 K	56.34 ± 0.23
40 K	69.14 ± 0.27
45 K	82.14 ± 0.31
50 K	95.25 ± 0.35
60 K	121.6 ± 0.4
70 K	147.7 ± 0.5
80 K	173.5 ± 0.6
90 K	198.9 ± 0.6
100 K	223.7 ± 0.6
110 K	247.9 ± 0.7
120 K	271.6 ± 0.7
130 K	294.8 ± 0.7
140 K	317.4 ± 0.8
150 K	339.7 ± 0.8
160 K	362.6 ± 0.8
170 K	384.6 ± 0.9
180 K	405.6 ± 0.9
190 K	426.3 ± 0.9
200 K	446.6 ± 1
210 K	466.8 ± 1
220 K	486.7 ± 1
230 K	506.4 ± 1.1
240 K	526 ± 1.1
250 K	545.3 ± 1.1
260 K	564.5 ± 1.1
270 K	583.5 ± 1.2
280 K	602.3 ± 1.2
290 K	621.1 ± 1.2
298.15 K	636.3 ± 1.3
300 K	639.7 ± 1.3
310 K	658.3 ± 1.3
320 K	676.9 ± 1.3
330 K	695 ± 1
340 K	714 ± 1
350 K	732 ± 2
360 K	750 ± 2
370 K	768 ± 2
380 K	786 ± 2
390 K	804 ± 2
400 K	821 ± 2

From the NIST ThermoML archive (doi:10.1021/je200508x)
